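Tested at 5 concentrations; 48 h exposure; 96-well plates; endpoints linearly interpolated, else capped at highest concentration. GI50 is the concentration that inhibits growth by half.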 Active and inactive are the calls of the source. No stated cut-off is given here; in the data, active = GI50 up to about 1.1 µM and inactive = higher.
Key:
Assay in all cases: DTP human tumour cell line panel, 48 h
[1] = tested on: OVCAR-3
[2] = tested on: SK-OV-3
[3] = tested on: ACHN
[4] = tested on: PC-3
[5] = tested on: TK-10
[6] = tested on: MOLT-4
[7] = tested on: Malme-3M
[8] = tested on: NCI-H522
[9] = tested on: DU-145
[10] = tested on: LOX IMVI
[11] = tested on: SK-MEL-2
[12] = tested on: NCI-H23
[13] = tested on: T47D
[14] = tested on: HL-60
[15] = tested on: HCT-15
[16] = tested on: NCI-H226
[17] = tested on: CCRF-CEM
[18] = tested on: COLO 205
[19] = tested on: UACC-62
[20] = tested on: NCI/ADR-RES

Compound	GI50 [1]	GI50 [2]	GI50 [3]	GI50 [4]	GI50 [5]	GI50 [6]	GI50 [7]	GI50 [8]	GI50 [9]	GI50 [10]	GI50 [11]	GI50 [12]	GI50 [13]	GI50 [14]	GI50 [15]	GI50 [16]	GI50 [17]	GI50 [18]	GI50 [19]	GI50 [20]
CN(C)CCN(C)c1ccc2c(=O)n(CCN(C)C)c(=O)n3c4ccccc4c(=O)c1c23	1.89 µM (inactive)	1.55 µM (inactive)	0.0436 µM (active)	0.973 µM (active)	1.51 µM (inactive)	0.0167 µM (active)	1.23 µM (inactive)	0.259 µM (active)	0.128 µM (active)	0.35 µM (active)	2.87 µM (inactive)	0.54 µM (active)	1.09 µM (active)	0.0627 µM (active)	0.179 µM	0.29 µM (active)	< 0.0258 µM (active)	0.647 µM (active)	0.993 µM (active)	2.29 µM (inactive)
COc1cc2cc(c1Cl)N(C)C(=O)C[C@H](OC(=O)[C@H](C)N(C)C(C)=O)[C@]1(C)O[C@H]1[C@H](C)[C@@H]1C[C@@](O)(NC(=O)O1)[C@H](OC)/C=C/C=C(/C)C2	0.0127 µM (active)	0.0444 µM (active)	0.0526 µM (active)	0.000505 µM (active)	0.238 µM (active)	0.0229 µM (active)	0.0351 µM (active)	0.0173 µM (active)	0.00135 µM (active)	0.0153 µM (active)	0.0491 µM (active)	0.0201 µM (active)	> 100 µM (inactive)	0.0125 µM (active)	0.0292 µM	0.0435 µM (active)	0.0159 µM (active)	0.02 µM (active)	0.0337 µM (active)	0.0975 µM (active)
NC(=O)c1ccc(S(=O)(=NS(=O)(=O)c2ccccc2)c2ccc(C(N)=O)cc2)cc1	> 100 µM (inactive)	> 100 µM (inactive)	> 100 µM (inactive)	> 100 µM (inactive)	> 100 µM (inactive)	> 100 µM (inactive)	> 100 µM (inactive)	> 100 µM (inactive)	> 100 µM (inactive)	> 100 µM (inactive)	> 100 µM (inactive)	> 100 µM (inactive)	> 100 µM (inactive)	> 100 µM (inactive)	> 100 µM	> 100 µM (inactive)	> 100 µM (inactive)	> 100 µM (inactive)	> 100 µM (inactive)	> 100 µM (inactive)
COc1ccc(N(C(=O)OC(C)(C)C)[C@@H]2C(C)=C[C@H]([S@@+]([O-])c3ccc(C)cc3)[C@@H]3C(=O)N(C)C(=O)[C@@H]32)cc1	27.1 µM (inactive)	13.2 µM (inactive)	20.5 µM (inactive)	23.9 µM (inactive)	17.1 µM (inactive)	27.5 µM (inactive)	18.6 µM (inactive)	4.2 µM (inactive)	30.2 µM (inactive)	3.85 µM (inactive)	18.5 µM (inactive)	20.9 µM (inactive)	33.6 µM (inactive)	22 µM (inactive)	27.5 µM	16.6 µM (inactive)	5.48 µM (inactive)	17 µM (inactive)	18.4 µM (inactive)	21.5 µM (inactive)
COc1ccc(-c2c3c(n(C4OC(COC(C)=O)C(OC(C)=O)C(OC(C)=O)C4OC(C)=O)c(=S)c2C#N)CCCC3)cc1 (centres undefined)	19.6 µM (inactive)	> 100 µM (inactive)	55.6 µM (inactive)	19.5 µM (inactive)	> 100 µM (inactive)	27.6 µM (inactive)	82.6 µM (inactive)	25.3 µM (inactive)	44.9 µM (inactive)	> 100 µM (inactive)	16.2 µM (inactive)	37.9 µM (inactive)	34.3 µM (inactive)	62.5 µM (inactive)	41.5 µM	> 100 µM (inactive)	25.5 µM (inactive)	69.5 µM (inactive)	20 µM (inactive)	54.1 µM (inactive)
CN(C)c1ccc(/C=C(\NC(=O)c2ccccc2)C(=O)Nc2ccccc2C(=O)NCc2ccccc2)cc1	> 100 µM (inactive)	> 100 µM (inactive)	> 100 µM (inactive)	> 100 µM (inactive)	> 100 µM (inactive)	56.4 µM (inactive)	> 100 µM (inactive)	27.6 µM (inactive)	> 100 µM (inactive)	> 100 µM (inactive)	> 100 µM (inactive)	> 100 µM (inactive)	> 100 µM (inactive)	40.6 µM (inactive)	> 100 µM	50.8 µM (inactive)	62.4 µM (inactive)	> 100 µM (inactive)	> 100 µM (inactive)	43.1 µM (inactive)
CN(C)c1ccc(C(=N/N=C2\C(=O)Nc3ccccc32)c2ccc(N(C)C)cc2)cc1	0.513 µM (active)	1.37 µM (inactive)	1.04 µM (active)	1.58 µM (inactive)	1.73 µM (inactive)	0.422 µM (active)	2.17 µM (inactive)	0.167 µM (active)	1.91 µM (inactive)	0.748 µM (active)	0.248 µM (active)	1.73 µM (inactive)	0.771 µM (active)	0.363 µM (active)	0.188 µM	6.89 µM (inactive)	0.935 µM (active)	0.358 µM (active)	0.37 µM (active)	0.218 µM (active)
NC(C(=O)O)C(O)c1c[nH]cn1 (centres undefined)	> 100 µM (inactive)	> 100 µM (inactive)	> 100 µM (inactive)	> 100 µM (inactive)	> 100 µM (inactive)	> 100 µM (inactive)	> 100 µM (inactive)	> 100 µM (inactive)	> 100 µM (inactive)	> 100 µM (inactive)	> 100 µM (inactive)	> 100 µM (inactive)	> 100 µM (inactive)	> 100 µM (inactive)	> 100 µM	> 100 µM (inactive)	> 100 µM (inactive)	> 100 µM (inactive)	> 100 µM (inactive)	> 100 µM (inactive)
CN(C)C=C1C(=O)c2c(Br)sc(Br)c2C1=O	19.1 µM (inactive)	22 µM (inactive)	29.6 µM (inactive)	20.7 µM (inactive)	28.4 µM (inactive)	32.7 µM (inactive)	14.3 µM (inactive)	15.9 µM (inactive)	28.5 µM (inactive)	20 µM (inactive)	14.1 µM (inactive)	15.1 µM (inactive)	29.9 µM (inactive)	16.3 µM (inactive)	18.1 µM	16.3 µM (inactive)	30.4 µM (inactive)	18.5 µM (inactive)	17.1 µM (inactive)	26.1 µM (inactive)
COP(=O)(OC)C(Nc1ccc(Cc2ccc(NC(c3ccco3)P(=O)(OC)OC)cc2)cc1)c1ccco1 (centres undefined)	85.1 µM (inactive)	18.8 µM (inactive)	20.9 µM (inactive)	52.7 µM (inactive)	8.77 µM (inactive)	> 100 µM (inactive)	47.9 µM (inactive)	28.3 µM (inactive)	> 100 µM (inactive)	82.2 µM (inactive)	14 µM (inactive)	14 µM (inactive)	67.1 µM (inactive)	> 100 µM (inactive)	> 100 µM	> 100 µM (inactive)	> 100 µM (inactive)	> 100 µM (inactive)	17 µM (inactive)	> 100 µM (inactive)
Nc1nc(Cl)cc(NCC2(CO)COC2)n1	> 100 µM (inactive)	> 100 µM (inactive)	> 100 µM (inactive)	> 100 µM (inactive)	> 100 µM (inactive)	> 10 µM (inactive)	> 100 µM (inactive)	> 100 µM (inactive)	> 100 µM (inactive)	> 100 µM (inactive)	> 100 µM (inactive)	> 100 µM (inactive)	53.8 µM (inactive)	> 100 µM (inactive)	> 100 µM	> 100 µM (inactive)	> 100 µM (inactive)	> 100 µM (inactive)	> 100 µM (inactive)	> 100 µM (inactive)
O=C(OC1=CCN(Br)C1=O)C1=C(O)C(=O)N(Br)C1	20.8 µM (inactive)	21.5 µM (inactive)	33.9 µM (inactive)	29.3 µM (inactive)	33 µM (inactive)	22.8 µM (inactive)	55 µM (inactive)	14.3 µM (inactive)	53.2 µM (inactive)	20.9 µM (inactive)	26.4 µM (inactive)	32.4 µM (inactive)	18.4 µM (inactive)	24.5 µM (inactive)	57.3 µM	54 µM (inactive)	27.1 µM (inactive)	23.7 µM (inactive)	18.1 µM (inactive)	> 100 µM (inactive)
COc1ccc(CC2c3cc(OC)c(OC)c(OC)c3CC[N+]2(C)C)cc1Oc1ccc(CC2c3cc4c(c(OC)c3CC[N+]2(C)C)OCO4)cc1 (centres undefined)		> 100 µM (inactive)	> 100 µM (inactive)	> 100 µM (inactive)	> 100 µM (inactive)	> 100 µM (inactive)	> 100 µM (inactive)	> 100 µM (inactive)	> 100 µM (inactive)	> 100 µM (inactive)	> 100 µM (inactive)	> 100 µM (inactive)	> 100 µM (inactive)	> 100 µM (inactive)	> 100 µM	> 100 µM (inactive)	> 100 µM (inactive)	> 100 µM (inactive)	> 100 µM (inactive)	> 100 µM (inactive)
O=c1cccccc1O [TROPOLONE]	34 µM (inactive)	> 100 µM (inactive)	> 100 µM (inactive)	83.4 µM (inactive)	83.9 µM (inactive)	26.9 µM (inactive)	> 100 µM (inactive)	33.3 µM (inactive)	> 100 µM (inactive)	34.7 µM (inactive)	> 100 µM (inactive)	> 100 µM (inactive)	52.8 µM (inactive)	11.9 µM (inactive)	34 µM	> 100 µM (inactive)	17.4 µM (inactive)	39.6 µM (inactive)	96.6 µM (inactive)	39.6 µM (inactive)

From ChEMBL document CHEMBL1201862, “PubChem BioAssay data set” (2004)
